Experiment [1] deals with T1, Neutrophil elastase (Homo sapiens) (UniProt P08246).
T1 sequence (whole entry): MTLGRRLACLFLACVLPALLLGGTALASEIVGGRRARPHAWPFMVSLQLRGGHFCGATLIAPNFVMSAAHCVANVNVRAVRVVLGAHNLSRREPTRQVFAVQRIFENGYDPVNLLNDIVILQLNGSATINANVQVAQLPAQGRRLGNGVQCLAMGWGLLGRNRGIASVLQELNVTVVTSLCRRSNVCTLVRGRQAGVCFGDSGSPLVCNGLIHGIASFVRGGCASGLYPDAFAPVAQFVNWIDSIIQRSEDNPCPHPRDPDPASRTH
Nature of the experiment: Specificity constant on human neutrophil elastase was determined at 48 percent and at 60 minutes for maximum inhibition and with 0 minutes persistence of inhibition.

Experiment [2] deals with T1, Neutrophil elastase (Homo sapiens). Nature of the experiment: Rate constant of acylation on human neutrophil elastase was determined at 48 percent and at 60 minutes for maximum inhibition with 0 minutes persistence of inhibition.
For experiment [3] the target is unchanged. The experiment in a line: Binding constant on human neutrophil elastase was determined at 48 percent and at 60 minutes for maximum inhibition with 0 minutes persistence of inhibition.
Experiment [4] addresses T2, Chymotrypsin-like elastase family member 2A (Sus scrofa) (UniProt P08419).
T2 sequence (whole entry): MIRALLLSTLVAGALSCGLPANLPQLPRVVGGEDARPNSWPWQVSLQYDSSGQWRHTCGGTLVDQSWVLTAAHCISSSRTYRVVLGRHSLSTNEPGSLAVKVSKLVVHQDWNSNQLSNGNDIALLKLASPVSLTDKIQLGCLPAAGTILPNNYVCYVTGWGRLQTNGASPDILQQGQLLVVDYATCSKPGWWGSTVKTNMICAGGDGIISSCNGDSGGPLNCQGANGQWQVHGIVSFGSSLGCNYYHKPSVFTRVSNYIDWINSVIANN
Nature of the experiment: Rate constant of acylation on porcine pancreatic elastase was determined at 42 percent and at 55 minutes for maximum inhibition and no enzyme activity was recovered over the 2 h-time.

Experiment [5] has as its target T2, Chymotrypsin-like elastase family member 2A (Sus scrofa). The experiment in a line: Specificity constant on porcine pancreatic elastase was determined at 42 percent and at 55 minutes for maximum inhibition and no enzyme activity was recovered over the 2 h-time.
For experiment [6] the target is unchanged. The experiment in a line: Binding constant on porcine pancreatic elastase was determined at 42 percent and at 55 minutes for maximum inhibition and no enzyme activity was recovered over the 2 h-time.
Experiment [7] deals with T3, Plasminogen (Homo sapiens, UniProt P00747). The experiment in a line: Rate constant of deacylation for plasmin; Fast and could not be measured.
T3 sequence (P00747 97-580 limits assumed): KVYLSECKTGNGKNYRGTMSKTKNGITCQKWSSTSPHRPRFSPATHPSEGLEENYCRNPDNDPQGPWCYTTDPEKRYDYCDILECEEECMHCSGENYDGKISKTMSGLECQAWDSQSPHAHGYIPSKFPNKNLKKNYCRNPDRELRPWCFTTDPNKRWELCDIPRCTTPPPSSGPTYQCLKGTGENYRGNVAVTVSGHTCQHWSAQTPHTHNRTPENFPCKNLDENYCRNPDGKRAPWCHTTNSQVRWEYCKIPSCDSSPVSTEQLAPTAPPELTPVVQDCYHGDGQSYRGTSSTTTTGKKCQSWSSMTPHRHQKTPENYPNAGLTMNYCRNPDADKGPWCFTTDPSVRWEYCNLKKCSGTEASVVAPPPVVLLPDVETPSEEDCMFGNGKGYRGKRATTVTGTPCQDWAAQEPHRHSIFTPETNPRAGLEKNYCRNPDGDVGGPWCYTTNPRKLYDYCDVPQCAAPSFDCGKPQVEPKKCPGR
T3 sequence (P00747 581-810 limits assumed): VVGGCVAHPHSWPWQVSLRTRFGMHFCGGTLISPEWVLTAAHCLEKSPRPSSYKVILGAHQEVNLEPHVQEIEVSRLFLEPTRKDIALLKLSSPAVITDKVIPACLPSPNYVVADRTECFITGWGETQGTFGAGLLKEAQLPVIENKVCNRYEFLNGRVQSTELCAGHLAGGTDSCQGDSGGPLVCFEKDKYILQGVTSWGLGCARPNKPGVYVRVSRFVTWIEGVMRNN
Experiment [8] has as its target T4, Prothrombin (Homo sapiens, UniProt P00734). Nature of the experiment: Rate constant of deacylation for thrombin.
Experiment [9] has as its target T5, Urokinase-type plasminogen activator (Homo sapiens, UniProt P00749). The experiment in a line: Rate constant of deacylation for Urokinase-type plasminogen activator.
Experiment [10] has as its target T3, Plasminogen.
The target in experiment [11] is T3, Plasminogen. This is another data set of the same source.
Experiment [12] concerns the target T3, Plasminogen. This is another data set of the same source.
Description: Binding constant on plasmin was determined at 30 percent and at 82 minutes for maximum inhibition and no enzyme activity was recovered over the 2 h-time
Experiment [13] addresses T5, Urokinase-type plasminogen activator.
The target of experiment [14] is T4, Prothrombin.
The target of experiment [15] is T4, Prothrombin. The source holds these as a separate data set.
Experiment [16] addresses T4, Prothrombin. This is another data set of the same source.
Experiment [17] has as its target T5, Urokinase-type plasminogen activator. The source holds these as a separate data set.
Experiment [18] shares this target. The source holds these as a separate data set.
Description: Specificity constant on Urokinase-type plasminogen activator was determined at 0 percent and at 91 minutes for maximum inhibition and no enzyme activity was recovered over the 2 h-time
Experiment [19] has as its target T1, Neutrophil elastase (Homo sapiens). Nature of the experiment: Specificity constant on human neutrophil elastase was determined at 30 percent and at 35 minutes for maximum inhibition with 0 minutes persistence of inhibition.
Experiment [20] shares this target. Nature of the experiment: Rate constant of acylation on human neutrophil elastase was determined at 30 percent and at 35 minutes for maximum inhibition with 0 minutes persistence of inhibition.
Experiment [21] has the same target. The experiment in a line: Binding constant on human neutrophil elastase was determined at 30 percent and at 35 minutes for maximum inhibition with 0 minutes persistence of inhibition.
Experiment [22] concerns the target T2, Chymotrypsin-like elastase family member 2A (Sus scrofa). Nature of the experiment: Specificity constant on porcine pancreatic elastase was determined at 10 percent and at 78 minutes for maximum inhibition and no enzyme activity was recovered over the 2 h-time.
Experiment [23] has the same target. Nature of the experiment: Binding constant on porcine pancreatic elastase was determined at 10 percent and at 78 minutes for maximum inhibition and no enzyme activity was recovered over the 2 h-time.
The target is the same in experiment [24]. The experiment in a line: Rate constant of acylation on porcine pancreatic elastase was determined at 10 percent and at 78 minutes for maximum inhibition and no enzyme activity was recovered over the 2 h-time.
In experiment [25] the target is T3, Plasminogen. The experiment in a line: Binding constant on plasmin was determined at 0 percent and at 98 minutes for maximum inhibition and no enzyme activity was recovered over the 2 h-time.
In experiment [26] the target is Tissue-type plasminogen activator (Homo sapiens) (UniProt P00750). Nature of the experiment: Binding constant on Tissue type plasminogen activator was determined at 15 percent and at 90 minutes for maximum inhibition and no enzyme activity was recovered over the 2 h-time.
Chain of Tissue-type plasminogen activator (Homo sapiens) (P00750 36-562 limits assumed): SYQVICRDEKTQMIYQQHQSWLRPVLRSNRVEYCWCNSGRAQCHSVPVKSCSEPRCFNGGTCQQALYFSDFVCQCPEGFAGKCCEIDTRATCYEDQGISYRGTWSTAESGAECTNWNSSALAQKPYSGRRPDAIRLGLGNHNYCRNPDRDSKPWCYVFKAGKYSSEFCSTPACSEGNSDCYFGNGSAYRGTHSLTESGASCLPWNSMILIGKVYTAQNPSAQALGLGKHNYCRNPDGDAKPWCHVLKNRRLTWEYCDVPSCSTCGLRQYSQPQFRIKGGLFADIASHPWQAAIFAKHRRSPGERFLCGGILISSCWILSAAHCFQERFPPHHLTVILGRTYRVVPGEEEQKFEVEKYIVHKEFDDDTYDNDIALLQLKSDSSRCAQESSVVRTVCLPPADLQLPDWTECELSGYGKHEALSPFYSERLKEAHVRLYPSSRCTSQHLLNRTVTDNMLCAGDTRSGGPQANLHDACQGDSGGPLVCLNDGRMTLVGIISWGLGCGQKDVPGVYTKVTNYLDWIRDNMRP
The target in experiment [27] is T4, Prothrombin. The experiment in a line: Binding constant on thrombin was determined at 15 percent and at 98 minutes for maximum inhibition and no enzyme activity was recovered over the 2 h-time.
The target of experiment [28] is T6, Serine protease 1 (Homo sapiens, UniProt P07477). The experiment in a line: Binding constant on trypsin was determined at 0 percent and at 99 minutes for maximum inhibition and no enzyme activity was recovered over the 2 h-time.
T6 sequence (P07477 whole entry): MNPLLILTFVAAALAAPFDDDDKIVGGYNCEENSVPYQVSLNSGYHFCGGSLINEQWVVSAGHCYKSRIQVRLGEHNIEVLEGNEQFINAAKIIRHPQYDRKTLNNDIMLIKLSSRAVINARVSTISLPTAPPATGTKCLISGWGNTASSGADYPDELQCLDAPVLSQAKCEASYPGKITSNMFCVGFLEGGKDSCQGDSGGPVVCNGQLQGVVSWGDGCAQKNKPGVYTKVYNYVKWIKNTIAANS
Experiment [29] deals with T6, Serine protease 1. The experiment in a line: Rate constant of acylation on trypsin was determined at 0 percent and at 99 minutes for maximum inhibition and no enzyme activity was recovered over the 2 h-time.
Experiment [30] has as its target T6, Serine protease 1. The experiment in a line: Specificity constant on trypsin was determined at 0 percent and at 99 minutes for maximum inhibition and no enzyme activity was recovered over the 2 h-time.
In experiment [31] the target is T3, Plasminogen. The source holds these as a separate data set.
Experiment [32] concerns the target T3, Plasminogen. The source holds these as a separate data set.
Experiment [33] addresses T4, Prothrombin. The source holds these as a separate data set.
Experiment [34] concerns the target T4, Prothrombin. The source holds these as a separate data set.
Experiment [35] has as its target Tissue-type plasminogen activator (Homo sapiens) (UniProt P00750).
Experiment [36] deals with T1, Neutrophil elastase (Homo sapiens). Nature of the experiment: Specificity constant on human neutrophil elastase was determined at 90 percent and at 93 minutes for maximum inhibition and no enzyme activity was recovered over the 2 h-time.
Experiment [37] shares this target. Nature of the experiment: Rate constant of acylation on human neutrophil elastase was determined at 90 percent and at 93 minutes for maximum inhibition and no enzyme activity was recovered over the 2 h-time.
Experiment [38] shares this target. The experiment in a line: Binding constant on human neutrophil elastase was determined at 90 percent and at 93 minutes for maximum inhibition and no enzyme activity was recovered over the 2 h-time.
Experiment [39] concerns the target T2, Chymotrypsin-like elastase family member 2A (Sus scrofa). The experiment in a line: Rate constant of acylation on porcine pancreatic elastase was determined at 30 percent and at 99 minutes for maximum inhibition and no enzyme activity was recovered over the 2 h-time.
Experiment [40] shares this target. Nature of the experiment: Specificity constant on porcine pancreatic elastase was determined at 30 percent and at 99 minutes for maximum inhibition and no enzyme activity was recovered over the 2 h-time.
Experiment [41] addresses T6, Serine protease 1. Nature of the experiment: Binding constant on trypsin was determined at 10 percent and at 95 minutes for maximum inhibition and no enzyme activity was recovered over the 2 h-time.
Experiment [42] addresses T6, Serine protease 1. Nature of the experiment: Rate constant of acylation on trypsin was determined at 10 percent and at 95 minutes for maximum inhibition and no enzyme activity was recovered over the 2 h-time.
Experiment [43] addresses Chymotrypsinogen A (Bos taurus) (UniProt P00766). Nature of the experiment: Specificity constant on alpha-chymotrypsin was determined at 10 percent and at 99 minutes for maximum inhibition and no enzyme activity was recovered over the 2 h-time.
Experiment [44] addresses T6, Serine protease 1. Nature of the experiment: Specificity constant on trypsin was determined at 10 percent and at 95 minutes for maximum inhibition and no enzyme activity was recovered over the 2 h-time.
Experiment [45] deals with Chymotrypsinogen A (Bos taurus) (UniProt P00766). Nature of the experiment: Binding constant on alpha-chymotrypsin was determined at 10 percent and at 99 minutes for maximum inhibition and no enzyme activity was recovered over the 2 h-time.
Experiment [46] has the same target. The experiment in a line: Rate constant of acylation on alpha-chymotrypsin was determined at 10 percent and at 99 minutes for maximum inhibition and no enzyme activity was recovered over the 2 h-time.
For experiment [47], the target named is T2, Chymotrypsin-like elastase family member 2A (Sus scrofa). Nature of the experiment: Binding constant on porcine pancreatic elastase was determined at 30 percent and at 99 minutes for maximum inhibition and no enzyme activity was recovered over the 2 h-time.

As to `C=C1CC(C)(C)CC(=O)O1`, the figures for the ka/Ki in [1] and in experiment [5] were 333 M⁻¹ s⁻¹ and 83.3 M⁻¹ s⁻¹, respectively. Also, the ka came out at 0.77 min⁻¹ in experiment [2] and 0.51 min⁻¹ in experiment [4]. In addition, the Ks/i in [3] stood at 43.3 µM; in experiment [6] it was 104 µM.

As for `C=C1CCC(c2ccc(CNC(=N)N)cc2)C(=O)O1` (stereo not given), the Kd result was “Not measurable” in experiment [7], 0.0001 s⁻¹ in experiment [8] and 0.000733 s⁻¹ in experiment [9]. The ka/Ki in experiment [10] amounted to 2000 M⁻¹ s⁻¹; in experiment [16] it was 2500 M⁻¹ s⁻¹; in experiment [18] it was 467000 M⁻¹ s⁻¹. Further, the ka in experiment [11] worked out at 57 min⁻¹; in experiment [15], 5.58 min⁻¹; in experiment [17], 9.8 min⁻¹. The Ks/i in [12] is 466 µM; in experiment [13], 0.35 µM; in [14], 37.9 µM.

Take `CC1CC(=O)O/C(=C/Br)C1` (stereo not given): the ka/Ki came to 333 M⁻¹ s⁻¹ in experiment [19] and 16.7 M⁻¹ s⁻¹ in experiment [22]. In addition, the figures for the ka in [20] and in [24] were 0.48 min⁻¹ and 0.33 min⁻¹, respectively. In addition, the Ks/i in experiment [21] was 22.6 µM; in experiment [23], 216 µM.

With `N=C(N)NCc1ccc(C2CC/C(=C\I)OC2=O)cc1` (stereo not given), the Ks/i stood at 1.19 µM in experiment [25], 0.12 µM in [26], 14.8 µM in experiment [27] and 0.08 µM in experiment [28]. In experiment [8], the Kd is 0.000217 s⁻¹. Further, the ka is 18.4 min⁻¹ in experiment [29]; 10.2 min⁻¹ in experiment [31]; 27.2 min⁻¹ in experiment [33]; “Not measurable” in experiment [35]; 7.56 min⁻¹ in experiment [17]. Besides, the ka/Ki in experiment [30] was found to be 3.83e+06 M⁻¹ s⁻¹; in experiment [32], 150000 M⁻¹ s⁻¹; in experiment [34] it was 33300 M⁻¹ s⁻¹; in experiment [18] it was 1.26e+07 M⁻¹ s⁻¹.

Regarding `CC(C)C1CC/C(=C\Br)OC1=O` (stereo not given), the ka/Ki in experiment [36] amounted to 14500 M⁻¹ s⁻¹; in experiment [40] it was 333 M⁻¹ s⁻¹; in experiment [43], 10000 M⁻¹ s⁻¹; in experiment [44], 667 M⁻¹ s⁻¹. Moreover, the ka in experiment [37] was found to be 0.67 min⁻¹; in [39] it was 0.52 min⁻¹; in [42], 1.8 min⁻¹; in experiment [46], 6 min⁻¹. Moreover, the Ks/i was 0.77 µM in [38], 44 µM in experiment [41], 9.8 µM in [45] and 26.9 µM in experiment [47].

The values above are taken from ChEMBL document CHEMBL1126229, “Enol lactone derivatives as inhibitors of human neutrophil elastase and trypsin-like proteases” (Bioorg Med Chem Lett, 1992).
